pIC50: −log10 of the molar value.
Target: MMP-13CD (catalytic domain of collagenase-3) (Homo sapiens, UniProt P45452)
Assay: Thiopeptolide substrate hydrolysis inhibition assay, MMP-13CD
Format: biochemical
Conditions: Table I; thiopeptolide substrate, HEPES pH 7.0, 22° C.; read-out: MMP-13CD IC50
Text: Thiopeptolide substrates show virtually no decomposition or hydrolysis at or below neutral pH in the absence of a matrix metalloproteinase enzyme.

Compound	pIC50
Cn1c(=O)n(Cc2cccc3ccccc23)c(=O)c2cc(C(=O)OCc3ccccc3)sc21 [Example 138, 1-Methyl-3-naphthalen-1-ylmethyl-2,4-dioxo-1,2,3,4-tetrahydro-thieno[2,3-d]pyrimidine-6-carboxylic acid benzyl ester]	6.18
CCOCCOCCOC(=O)c1cc2c(=O)n(Cc3ccccc3)c(=O)n(C)c2s1 [Example 177, 3-Benzyl-1-methyl-2,4-dioxo-1,2,3,4-tetrahydro-thieno[2,3-d]pyrimidine-6-carboxylic acid 2-(2-ethoxy-ethoxy)-ethyl ester]	< 4.00
COc1ccc(CNC(=O)c2cc3c(=O)n(Cc4ccccc4)c(=O)n(C)c3s2)cc1OC [Example 324, 3-Benzyl-1-methyl-2,4-dioxo-1,2,3,4-tetrahydro-thieno[2,3-d]pyrimidine-6-carboxylic acid 3,4-dimethoxy-benzylamide]	< 4.00
COc1ccc(CNC(=O)c2cc3c(=O)n(CCS(=O)(=O)c4ccc(F)cc4)c(=O)n(C)c3s2)cc1 [Example 268]	5.44
Cn1c(=O)n(Cc2ccccc2)c(=O)c2cc(C(=O)OCC3CCCN3)sc21 (stereo not drawn) [Example 199, 3-Benzyl-1-methyl-2,4-dioxo-1,2,3,4-tetrahydro-thieno[2,3-d]pyrimidine-6-carboxylic acid pyrrolidin-2-ylmethyl ester]	4.77
Cn1c(=O)n(Cc2ccccc2)c(=O)c2cc(C(=O)NCc3ccc(N)cc3)sc21 [Example 321, 3-Benzyl-1-methyl-2,4-dioxo-1,2,3,4-tetrahydro-thieno[2,3-d]pyrimidine-6-carboxylic acid 4-amino-benzylamide]	< 4.00
Cn1c(=O)n(Cc2ccccc2)c(=O)c2cc(C(=O)NCc3ccc(Br)cc3)sc21 [Example 350, 3-Benzyl-1-methyl-2,4-dioxo-1,2,3,4-tetrahydro-thieno[2,3-d]pyrimidine-6-carboxylic acid 4-bromo-benzylamide]	6.03
Cn1c(=O)n(Cc2ccccc2)c(=O)c2cc(C(=O)NCc3cc(Cl)cc(Cl)c3)sc21 [Example 352, 3-Benzyl-1-methyl-2,4-dioxo-1,2,3,4-tetrahydro-thieno[2,3-d]pyrimidine-6-carboxylic acid 3 ,5-dichloro-benzylamide]	< 4.00
Cn1ccc2cc(COC(=O)c3cc4c(=O)n(Cc5ccccc5)c(=O)n(C)c4s3)ccc21 [Example 305, 3-Benzyl-1-methyl-2,4-dioxo-1,2,3,4-tetrahydro-thieno[2,3-d]pyrimidine-6-carboxylic acid 1-methyl-1H-indol-5-ylmethyl ester]	4.33
Cn1c(=O)n(Cc2ccc(C(=O)O)cc2)c(=O)c2cc(C(=O)NCc3ccc(S(C)(=O)=O)cc3)sc21 [Example 81, 4-[6-(4-Methanesulfonyl-benzylcarbamoyl)-1-methyl-2,4-dioxo-1,4-dihydro-2H-thieno[2,3-d]pyrimidin-3-ylmethyl]-benzoic acid]	5.41
C#CCn1c(=O)c2cc(C(=O)OCc3ccccc3)sc2n(C)c1=O [Example 130, 1-Methyl-2,4-dioxo-3-prop-2-ynyl-1,2,3,4-tetrahydro-thieno[2,3-d]pyrimidine-6-carboxylic acid benzyl ester]	7.01
CC(C)COC(=O)c1cc2c(=O)n(Cc3ccccc3)c(=O)n(C)c2s1 [Example 188, 3-Benzyl-1-methyl-2,4-dioxo-1,2,3,4-tetrahydro-thieno[2,3-d]pyrimidine-6-carboxylic acid isobutyl ester]	4.72
Cn1c(=O)n(Cc2ccccc2)c(=O)c2cc(C(=O)NCc3cccc(C(F)(F)F)c3)sc21 [Example 335, 3-Benzyl-1-methyl-2,4-dioxo-1,2,3,4-tetrahydro-thieno[2,3-d]pyrimidine-6-carboxylic acid 3-trifluoromethyl-benzylamide]	6.60
Cn1c(=O)n(Cc2ccccc2)c(=O)c2cc(C(=O)OCCOCc3ccccc3)sc21 [Example 170, 3-Benzyl-1-methyl-2,4-dioxo-1,2,3,4-tetrahydro-thieno[2,3-d]pyrimidine-6-carboxylic acid 2-benzyloxy-ethyl ester]	6.14
Cn1c(=O)n(Cc2ccccc2)c(=O)c2cc(C(=O)OCCc3ccccc3)sc21 [Example 172, 3-Benzyl-1-methyl-2,4-dioxo-1,2,3,4-tetrahydro-thieno[2,3-d]pyrimidine-6-carboxylic acid phenethyl ester]	4.49
CSc1ccc(COC(=O)c2cc3c(=O)n(Cc4ccccc4)c(=O)n(C)c3s2)cc1 [Example 203, 3-Benzyl-1-methyl-2,4-dioxo-1,2,3,4-tetrahydro-thieno[2,3-d]pyrimidine-6-carboxylic acid 4-methylsulfanyl-benzyl ester]	6.44
3-(4-Methoxycarboxyl-butyl)-1-methyl-2,4-dioxo-1,2,3,4-tetrahydro-thieno[2,3-d]pyrimidine-6-carboxylic acid benzyl ester [Example 141]	6.82
COc1cccc(CNC(=O)c2cc3c(=O)n(CCc4cccc5ccccc45)c(=O)n(C)c3s2)c1 [Example 285]	4.52
CCCCOC(=O)c1cc2c(=O)n(Cc3ccccc3)c(=O)n(C)c2s1 [Example 150, 3-Benzyl-1-methyl-2,4-dioxo-1,2,3,4-tetrahydro-thieno[2,3-d]pyrimidine-6-carboxylic acid butyl ester]	4.89
Cc1ccc(CCOC(=O)c2cc3c(=O)n(Cc4ccccc4)c(=O)n(C)c3s2)cc1 [Example 155, 3-Benzyl-1-methyl-2,4-dioxo-1,2,3,4-tetrahydro-thieno[2,3-d]pyrimidine-6-carboxylic acid 2-p-tolyl-ethyl ester]	4.21
COC(=O)Nc1cc(Cn2c(=O)c3cc(C(=O)NCc4cccc(OC)c4)sc3n(C)c2=O)on1 [Example 298]	6.31

These reach a higher pIC50. Values come first.

pIC50	Compound
7.20	CC/C=C/Cn1c(=O)c2cc(C(=O)NCc3ccc(OC)cc3)sc2n(C)c1=O [Example 260]
7.16	COc1cccc(CNC(=O)c2cc3c(=O)n(CCOc4ccc(Br)cc4)c(=O)n(C)c3s2)c1 [Example 233, 3-[2-(4-Bromo-phenoxy)-ethyl]-1-methyl-2,4-dioxo-1,2,3,4-tetrahydro-thieno[2,3-d]pyrimidine-6-carboxylic acid 3-methoxy-benzylamide]
7.69	COC(=O)c1ccc(Cn2c(=O)c3cc(C(=O)NCc4cccc(OC)c4)sc3n(C)c2=O)cc1 [Example 84, 4-[6-(3-Methoxy-benzylcarbamoyl)-1-methyl-2,4-dioxo-1,4-dihydro-2H-thieno[2,3-d]pyrimidin-3-ylmethyl]-benzoic acid methyl ester]
8.47	COc1cccc(COC(=O)c2cc3c(=O)n(Cc4ccccc4)c(=O)n(C)c3s2)c1 [Example 193, 3-Benzyl-1-methyl-2,4-dioxo-1,2,3,4-tetrahydro-thieno[2,3-d]pyrimidine-6-carboxylic acid 3-methoxy-benzyl ester]
7.20	COc1cccc(Cn2c(=O)c3cc(C(=O)OCc4ccccc4)sc3n(C)c2=O)c1 [Example 98, 3-(3-Methoxy-benzyl)-1-methyl-2,4-dioxo-1,2,3,4-tetrahydro-thieno[2,3-d]pyrimidine-6-carboxylic acid benzyl ester]
8.28	Cn1c(=O)n(Cc2ccc3c(c2)OCO3)c(=O)c2cc(C(=O)OCc3ccccc3)sc21 [Example 307, 3-1,3-Benzodioxol-5-ylmethyl-1-methyl-2,4-dioxo-1,2,3,4-tetrahydro-thieno[2,3-d]pyrimidine-6-carboxylic acid benzyl ester]
7.96	COC(=O)C1(c2ccc(Cn3c(=O)c4cc(C(=O)NCc5cccc(OC)c5)sc4n(C)c3=O)cc2)CC1 [Example 92, 1-{4-[6-(3-Methoxy-benzylcarbamoyl)-1-methyl-2,4-dioxo-1,4-dihydro-2H-thieno[2,3-d]pyrimidin-3-ylmethyl]-phenyl}-cyclopropanecarboxylic acid methyl ester]
7.24	COc1cccc(CNC(=O)c2cc3c(=O)n(CCOc4ccccc4)c(=O)n(C)c3s2)c1 [Example 297]
7.52	Cc1ccc(Cn2c(=O)c3cc(C(=O)OCc4ccccc4)sc3n(C)c2=O)cc1 [Example 103, 1-Methyl-3-(4-methyl-benzyl)-2,4-dioxo-1,2,3,4-tetrahydro-thieno[2,3-d]pyrimidine-6-carboxylic acid benzyl ester]
7.85	Cn1c(=O)n(Cc2ccccc2)c(=O)c2cc(C(=O)OCc3ccc(Cl)cc3)sc21 [Example 185, 3-Benzyl-1-methyl-2,4-dioxo-1,2,3,4-tetrahydro-thieno[2,3-d]pyrimidine-6-carboxylic acid 4-chloro-benzyl ester]
7.72	CC#CCn1c(=O)c2cc(C(=O)OCc3ccccc3)sc2n(C)c1=O [Example 131, 3-But-2-ynyl-1-methyl-2,4-dioxo-1,2,3,4-tetrahydro-thieno[2,3-d]pyrimidine-6-carboxylic acid benzyl ester]
7.03	COc1cccc(CNC(=O)c2cc3c(=O)n(CCOc4ccc(Cl)cc4)c(=O)n(C)c3s2)c1 [Example 237, 3-[2-(4-chloro-phenoxy)-ethyl]-1-methyl-2,4-dioxo-1,2,3,4-tetrahydro-thieno[2,3-d]pyrimidine-6-carboxylic acid 3-methoxy-benzylamide]
8.12	Cc1cc(Cn2c(=O)c3cc(C(=O)NCc4cccc(O)c4)sc3n(C)c2=O)ccc1C(=O)O [Example 250, 4-[6-(3-hydroxy-benzylcarbamoyl)-1-methyl-2,4-dioxo-1,4-dihydro-2H-thieno[2,3-d]pyrimidin-3-ylmethyl]-2-methyl-benzoic acid]
7.14	Cn1c(=O)n(Cc2ccccc2)c(=O)c2cc(C(=O)OCc3ccc(Cl)c(Cl)c3)sc21 [Example 204, 3-Benzyl-1-methyl-2,4-dioxo-1,2,3,4-tetrahydro-thieno[2,3-d]pyrimidine-6-carboxylic acid 3,4-dichloro-benzyl ester]
7.05	Cn1c(=O)n(Cc2cccnc2)c(=O)c2cc(C(=O)OCc3ccccc3)sc21 [Example 125, 1-Methyl-2,4-dioxo-3-pyridin-3-ylmethyl-1,2,3,4-tetrahydro-thieno[2,3-d]pyrimidine-6-carboxylic acid benzyl ester]

Source: patent US20030004172A1, “Fused pyrimidinone matrix metalloproteinase inhibitors” (priority 2001, published 2003)
